In US8680094B2, “1, 4-benzoxazine compounds and derivatives thereof as therapeutic drugs for the treatment of neurodegenerative conditions” (Board of Regents, The University of Texas System, priority 2008, dated 2014):
Values joined by “and” are separate entries in the source; they are usually repeats but may differ in a detail not shown here. Equal entries are not always repeated.

Assays:
[1] = system: cerebellar granule neurons; experiment: LK-induced death of cultured cerebellar granule neurons, viability by DAPI staining; type: cell-based, rat; details: for neuroprotection against LK-induced neuronal death, in words: overall over 1, 5 and 25 μM; for protection at doses lower than 1 μM compared with 1 μM: 0.5, 0.25 and 0.1 μM
Protocol: Culturing and treatments of cerebellar granule neurons: Granule neuron cultures were obtained from dissociated cerebella of 6-7 day old Wistar rats as described previously (D'Mello et al., 1993). Cells were plated in Basal Eagle's Medium (BME) supplemented with 10% fetal calf serum (FCS), 25 mM KCl, 2 mM glutamine (Invitrogen), and 100 μg/ml gentamycin in poly-L-lysine coated 24-well dishes at a density 1×10^6 cells/well. Cytosine arabinofuranoside (10 μM) was added to the culture medium 18-22 h after plating to prevent replication of nonneuronal cells. Previous immunocytochemical analyses by our lab and other investigators have shown that these cultures have high purity containing over 95% granule neurons (Thangnipon et al., 2003; Kingsbury et al., 2005).
The neuronal cultures were maintained for 7-8 days prior to treatment. For treatment, the cells were rinsed once and then maintained in low K+ medium (serum-free BME medium; referred to as LK), or in the case of control cultures, in high K+ medium (serum-free BME medium supplemented with 20 mM KCl; referred to as HK). For treatments, the chemical compounds (dissolved in dimethylsulfoxide) were added directly to LK medium at the time of the switch from HK at concentrations of 1, 5, or 25 μM. Viability was assessed 24 hours by 4′,6′-diamidino-2-phenylindole hydrochloride (DAPI) staining (see below). Each compound was tested in duplicate (at each of the concentrations) and the experiment repeated at least 3 times.
The viability status of neuronal cultures treated with HK, LK, or LK medium supplemented with various compounds was evaluated by phase contrast microscopy and quantified by staining cell nuclei with DAPI as previously described (Yalcin et al., 2003; Morrison et al., 2006; Majzadeh et al., 2007)). Briefly, the cells were fixed in 4% paraformaldehyde for 20 min at 4° C. After washing in phosphate buffered saline, diamidino-2-phenylindole hydrochloride (DAPI; 1 μg/ml in phosphate buffered saline) was added for 15 min at room-temperature and viewed under ultraviolet light (260 nm). Cells with condensed or fragmented nuclei were scored as dead. Viability has been expressed as percent of control cultures, which were switched to HK medium). Statistical analysis was performed using an unpaired, two-tailed Student's T test, compared to mean neuronal survival of control cultures receiving LK treatment.
When cultured cerebellar granule neurons are switched from HK to LK medium about 50% of the cells underwent apoptosis within 24 h (D'Mello et al., 1993). The inventors utilized this widely used and recognized model to test a total of 20 different 1,4-benzoxazine derivatives for their ability to protect against LK-induced neuronal death. Each compound was tested at 3 different doses—1 μM, 5 μM and 25 μM and viability quantified by DAPI-staining. The highest does was included to test for possible toxicity effects of the compounds. Key results were confirmed using TUNEL staining, another reliable assay of apoptosis (FIG. 1). As shown in Table 1 and FIG. 1, the present invention identifies several compounds with significant neuroprotective effect. Two of the most protective compounds are HSB-13 and HSB-22, both with Ar=3′,5′-dibromo-4′-hydroxyphenyl (FIG. 1). […] Protection with this compound is lower than that observed with HSB-13 and HSB-22 at the two lower doses. […] To examine whether a higher level of protection could be observed at doses lower than 1 μM, the analyses of these compounds was extended to doses of 0.5, 0.25, and 0.1 μM.
When cultured cerebellar granule neurons are switched to LK medium, about 50% of the cells undergo apoptosis within 24 h. In this study, a total of 20 different 1,4-benzoxazine derivatives of the structure shown in FIG. 1 were tested for their ability to protect against LK-induced death of cerebellar granule neurons. Each compound was tested at 3 different doses —1 μM, 5 μM and 25 μM. […]

cultured neurons = details: Chin et al., 2004, cited from earlier work
[2] = system: 3-NP-induced mouse model of Huntington's disease; details: earlier work (Chin et al., 2004); cited from earlier work
GSK3β = GSK3β (Homo sapiens, UniProt P49841); details: stated for the reference compound, no value; cited from earlier work
Chain of GSK3β (P49841 whole entry, species assumed): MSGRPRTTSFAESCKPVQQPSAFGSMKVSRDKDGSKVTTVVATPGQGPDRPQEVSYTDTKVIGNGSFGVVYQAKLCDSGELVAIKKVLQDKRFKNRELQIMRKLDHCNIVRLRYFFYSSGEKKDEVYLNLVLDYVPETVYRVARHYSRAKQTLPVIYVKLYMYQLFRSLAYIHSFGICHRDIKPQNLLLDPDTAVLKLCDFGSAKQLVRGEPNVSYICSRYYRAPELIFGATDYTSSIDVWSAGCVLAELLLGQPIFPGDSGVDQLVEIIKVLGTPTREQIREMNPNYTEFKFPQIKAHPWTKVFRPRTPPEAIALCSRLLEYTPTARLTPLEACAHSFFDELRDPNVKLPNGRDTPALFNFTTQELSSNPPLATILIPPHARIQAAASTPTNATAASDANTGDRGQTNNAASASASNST

[3] = Table 1, 1 μM in LK medium, 24 h, % of survival in control cultures in HK medium, LK alone 48%
[4] = Table 1, 5 μM in LK medium, 24 h, % of survival in control cultures in HK medium, LK alone 48%
[5] = Table 1, 25 μM in LK medium, 24 h, % of survival in control cultures in HK medium, LK alone 48%
[6] = Table 4, 1 μM in LK medium, % of survival in HK control cultures, LK alone 48.16±8.44%
[7] = Table 4, 5 μM in LK medium, % of survival in HK control cultures, LK alone 48.16±8.44%
[8] = Table 4, 25 μM in LK medium, % of survival in HK control cultures, LK alone 48.16±8.44%

Compound	% Survival [1, 3]	% Survival [1, 4]	% Survival [1, 5]	% Survival [1, 6]	% Survival [1, 7]	% Survival [1, 8]	neuroprotection against LK-induced neuronal death, in words [1]	protection at doses lower than 1 μM compared with 1 μM [1]	protection against LK-induced neuronal death (FIG. 1) ([1]; 25 μM, 24 h, phase contrast microscopy, DAPI-staining, TUNEL-staining)	death of cultured neurons induced by a variety of different apoptotic stimuli (cultured neurons)	toxicity to cultured neurons (cultured neurons; at higher concentrations, Johnson et al., 2005, Chen et al., 2008)	behavioral performance in mice administered with 3-nitropropionic acid [2]	striatal degeneration in mice administered with 3-nitropropionic acid [2]	inhibition of GSK3β (GSK3β)	% Survival ([1]; Table 4, 25 μM in LK medium, % of survival in HK control cultures, LK alone 48.16±8.44%, listed as HSB-)
COc1ccc(OC)c(C=C2Oc3ccccc3NC2=S)c1 [ASK-11]	73.8 ± 2.31%	90.7 ± 14.50 %	74.0 ± 3.59%	73.8 ± 2.31%	90.7% and 90.7 ± 14.50 %	74.0 ± 3.59%	significant level of protection								
O=C1Nc2ccccc2O/C1=C\c1cc(Br)cc(Br)c1 [ASK-1]	75.3 ± 10.56%	68.8 ± 12.99%	69.1 ± 7.56%	75.3 ± 10.56%	68.8 ± 12.99%	69.1 ± 7.56%	lack of neuroprotection								
O=C1Nc2ccccc2OC1=Cc1ccsc1 [HSB-12]	76.8 ± 5.79 %	76.2 ± 3.42 %	81.4 ± 9.45 %	76.8 ± 5.79 %	76.2 ± 3.42 %	81.4 ± 9.45 %	inactive								
Cc1ccc2c(c1)NC(=O)/C(=C/c1ccccn1)O2 [HSB-7]	59.4 ± 13.93%		88.1 ± 2.44 %	59.4 ± 13.93%	59.8 ± 6.40%	88.1 ± 2.44 %									
CN(C)c1ccc(C=C2Oc3ccccc3NC2=O)cc1 [HSB-9]		68.8 ± 13.54%	63.3 ± 1.73%	67.3 ± 16.43%	68.8 ± 13.54%	63.3 ± 1.73%		lower							
COc1cc(C=C2Oc3ccccc3NC2=O)cc(OC)c1OC [HSB-14]	63.9 ± 2.26%	70.0 ± 1.63%	69.2 ± 5.30%	63.9 ± 2.26%	70.0 ± 1.63%	69.2 ± 5.30%									
CC(=O)Oc1c(Br)cc(/C=C2\Oc3ccc(F)cc3NC2=O)cc1Br [HSB-5]	65.9 ± 5.08%	69.3 ± 9.75%		65.9 ± 5.08%	69.3 ± 9.75%	95.6 ± 0.98 %			protective						
O=C1Nc2ccccc2OC1=Cc1cccs1 [HSB-11]	64.2 ± 12.18%	68.8 ± 4.26%	68.8 ± 4.49%	64.2 ± 12.18%	68.8 ± 4.26%	68.8 ± 4.49%	inactive								
O=C1Nc2ccc(I)cc2C1=Cc1cc(Br)c(O)c(Br)c1 [GW5074, 5-Iodo-3-[(3′,5′-dibromo-4′-hydroxyphenyl)methylene]-2-indolinone]										completely inhibits	display toxicity	improves behavioral performance	prevents striatal degeneration	inhibits GSK3β weakly	
COc1cc(/C=C2\Oc3ccc(C)cc3NC2=O)cc(OC)c1OC [HSB-15]	60.7 ± 2.76%	66.5 ± 9.26%	63.9 ± 3.32%	60.7 ± 2.76%	66.5 ± 9.26%	63.9 ± 3.32%									
CC(=O)Oc1c(Br)cc(/C=C2\Oc3ccc(C)cc3NC2=O)cc1Br [HSB-3]	56.9 ± 11.54%	59.6 ± 11.97%		56.9 ± 11.54%	59.6 ± 11.97%	97.4 ± 12.98 %									~97%
COc1cc(/C=C2\Oc3ccc(I)cc3NC2=O)cc(OC)c1OC [HSB-6]	61.9 ± 9.07%	72.1 ± 19.33%	59.4 ± 13.11%	61.9 ± 9.07%	72.1 ± 19.33%	59.4 ± 13.11%	lack of neuroprotection								
O=C1Nc2ccccc2OC1=Cc1c[nH]c2ccccc12 [HSB-20]	52.2 ± 10.11%	62.5 ± 3.14%	48.3 ± 12.11%	52.2 ± 10.11%	62.5 ± 3.14%	48.3 ± 12.11%									
CC(=O)Oc1c(Br)cc(/C=C2\Oc3ccc([N+](=O)[O-])cc3NC2=O)cc1Br [HSB-1]	58.8 ± 10.31%		63.5 ± 9.34%	58.8 ± 10.31%		63.5 ± 9.34%									
CN1C(=S)C(=Cc2ccc[nH]2)Oc2ccccc21 [ASK-9]		70.2 ± 5.32%	65.1 ± 5.63%	84.5% and 84.5 ± 3.30 %	70.2 ± 5.32%	65.1 ± 5.63%		lower							
S=C1Nc2ccccc2OC1=Cc1cccs1 [ASK-8]		60.8 ± 2.62%	39.3 ± 7.78%	73.3 ± 0.79 %	60.8 ± 2.62%	39.3 ± 7.78%	inactive	lower							
Cc1ccc2c(c1)NC(=O)/C(=C/c1ccsc1)O2 [HSB-4]		60.3 ± 4.47%	61.0 ± 3.58%	65.0 ± 4.34%	60.3 ± 4.47%	61.0 ± 3.58%	inactive	lower							
CC(=O)Oc1c(Br)cc(/C=C2\Oc3ccc(Cl)cc3NC2=O)cc1Br [HSB-2]	44.1 ± 23.42%	62.3 ± 15.64%		44.1 ± 23.42%	62.3 ± 15.64%										
